Test results taken from patent US6348461B1, “6,7-asymmetrically disubstituted quinoxalinecarboxylic acid derivatives, addition salts thereof, and processes for the preparation of both” (Kyorin Pharmaceutical Co., Ltd., priority 1997, dated 2002).

Columns and labels:
AMPA receptor = assay: Binding experiment to AMPA receptor ([3H]-AMPA displacement, crude synaptosome membrane preparations); design: species or system rats; details: crude synaptosome membranes from rat cerebral cortex; [3H]-AMPA 5 nM; potassium thiocyanate 100 mM; 30 minutes at 0° C.; Ki converted from IC50
Description: Binding Experiment to AMPA Receptor
After the reactions were stopped by suction filtration, the radio activity on the filter was measured with liquid scintillation counter. The specific binding of [^3H]-AMPA was determined by subtracting nonspecific binding level in the presence of glutamic acid (0.1 mM) from overall binding level.

Ki (AMPA receptor) [nM]	melting point	SMILES
450	> 300 °C	O=C(O)c1nc2cc(-n3ccnc3)c([N+](=O)[O-])cc2[nH]c1=O [Example 36, 3,4-Dihydro-7-(imidazole-1-yl)-6-nitro-3-oxoquinoxaline-2-carboxylic Acid]
48.1	199 to 201 °C (dec.)	O=C(Nc1cccc(Br)c1)OCc1cn(-c2cc3nc(C(=O)O)c(=O)[nH]c3cc2[N+](=O)[O-])ccc1=O [Example 123]
910	–	CN(C)c1cc2nc(C(=O)O)c(=O)[nH]c2cc1[N+](=O)[O-] [Example 39, 3,4-Dihydro-7-dimethylamino-6-nitro-3-oxoquinoxaline-2-carboxylic Acid]
32.3	230 to 232 °C (dec.)	O=C(Nc1ccccc1C(F)(F)F)OCc1cn(-c2cc3nc(C(=O)O)c(=O)[nH]c3cc2[N+](=O)[O-])cn1 [Example 101]
860	154 to 156 °C (dec.)	O=C(O)c1nc2cc(Oc3ccccc3)c([N+](=O)[O-])cc2[nH]c1=O [Example 62, 3,4-Dihydro-6-nitro-3-oxo-7-phenoxyquinoxaline-2-carboxylic Acid]
–	> 300 °C	O=C(NCc1ccn(-c2cc3nc(C(=O)O)c(=O)[nH]c3cc2C(F)(F)F)c1)Nc1ccccc1 [Example 188, 3,4-Dihydro-3-oxo-7-(3-((phenylaminocarbonylamino)methyl)pyrrole-1-yl)-6-trifluoromethylquinoxaline-2-carboxylic Acid]
–	249 to 251 °C (dec.)	O=C(NCc1ccn(-c2cc3nc(C(=O)O)c(=O)[nH]c3cc2C(F)(F)F)c1)Nc1ccc(C(=O)O)cc1F [Example 80, 7-(3-(((4-Carboxy-2-fluorophenyl)aminocarbonylamino)-methyl)pyrrole-1-yl)-3,4-dihydro-3-oxo-6-trifluoromethylquinoxaline-2-carboxylic Acid]
28.2	251 to 253 °C (dec.)	O=C(Nc1ccccc1F)OCc1cn(-c2cc3nc(C(=O)O)c(=O)[nH]c3cc2[N+](=O)[O-])cn1 [Example 96]
–	207 to 209 °C (dec.)	CCOC(=O)c1ccc(NC(=O)OCc2cn(-c3cc4nc(C(=O)O)c(=O)[nH]c4cc3[N+](=O)[O-])cn2)cc1 [Example 278, 3,4-Dihydro-7-(4-((N-(4-ethoxycarbonylphenyl)carbamoyloxy)methyl)imidazolyl)-6-nitro-3-oxoquinoxaline-2-carboxylic Acid]

More lines, now with the values behind:

SMILES	Ki (AMPA receptor) [nM]	melting point
Cl.O=C(O)c1nc2cc(Cn3ccnc3)c([N+](=O)[O-])cc2[nH]c1=O [Example 66, 3,4-Dihydro-7-(imidazole-1-yl)methyl-6-nitro-3-oxoquinoxaline-2-carboxylic Acid Hydrochloride]	360	> 300 °C
O=C(Nc1ccccc1)OCc1cn(-c2cc3nc(C(=O)O)c(=O)[nH]c3cc2[N+](=O)[O-])ccc1=O [Example 121, 3,4-Dihydro-6-nitro-3-oxo-7-(3-((N-phenylcarbamoyloxy)methyl)-4-pyridone-1-yl)quinoxaline-2-carboxylic Acid]	172	230 to 232 °C (dec.)
O=C(O)c1nc2cc(Br)c([N+](=O)[O-])cc2[nH]c1=O [Example 7, 7-Bromo-3,4-dihydro-6-nitro-3-oxoquinoxaline-2-carboxylic Acid]	630	–
O=C(O)c1nc2cc(F)c([N+](=O)[O-])cc2[nH]c1=O [Example 6, 3,4-Dihydro-7-fluoro-6-nitro-3-oxoquinoxaline-2-carboxylic Acid]	2010	–
O=C(O)c1nc2cc(N3CCOCC3)c([N+](=O)[O-])cc2[nH]c1=O [Example 35, 3,4-Dihydro-7-morpholino-6-nitro-3-oxoquinoxaline-2-carboxylic Acid]	2040	213.5 to 214.5 °C
O=C(O)c1nc2cc(-n3ccc(=O)cc3)c([N+](=O)[O-])cc2[nH]c1=O [Example 37, 3,4-Dihydro-6-nitro-3-oxo-7-(4-pyridone-1-yl)quinoxaline-2-carboxylic Acid]	330	283 to 285 °C
Cc1cc2nc(C(=O)O)c(=O)[nH]c2cc1[N+](=O)[O-] [Example 8, 3,4-Dihydro-7-methyl-6-nitro-3-oxoquinoxaline-2-carboxylic Acid]	330	239 to 242 °C
O=C(O)c1nc2cc(Cl)c([N+](=O)[O-])cc2[nH]c1=O [Example 5, 7-Chloro-3,4-dihydro-6-nitro-3-oxoquinoxaline-2-carboxylic Acid]	1260	–
